This assay deals with MUC5AC (Homo sapiens, UniProt P98088). Kind of assay: Phage display (CX7C library) against MUC5AC, Sanger sequencing. The class given is binding. To be noted: MUC5AC phage screening, third round of panning, 16 sequenced candidates. The procedure:
For each mucin of interest, 5 μg of mucin protein was diluted in 150 μL of Tris-buffered saline (TBS) and added to 2 wells of a microtiter plate. The plate was left overnight in a humidified, sealed container with agitation at 50 rpm. After the overnight mucin coating, the solution was poured out, and 300 μL of blocking buffer was added to the wells for 1 h. After the 1 h waiting period, the blocking buffer was poured out, and the wells were washed three times with 300 μL of Tris-buffered saline with TBST (TBS + 0.1% (v/v) Tween-20) to remove nonspecific binding on the mucin layer coating. Next, 5 μL of the C7C library diluted with 95 μL of TBST was added to each blocked well and placed on shaker for 45 min, before pouring out the nonbinding phage and washing the plate ten times with TBST. A 0.2 M glycine-HCl elution buffer (pH 2.2, 100 μL) was added to each well and placed on a shaker for 20 min to release the mucin-layer binding peptides on the plate as unamplified eluate, with the pH neutralized by 30 μL of neutralization buffer (1 M Tris-HCl, pH 9).
E. coli liquid cultures were prepared by adding E. coli cells to 20 mL of LB media and placing them in shaking conditions at 37 °C and 250 rpm for 2 h and 45 min. The unamplified eluate (1 μL of which was saved for titering) was added to the E. coli cultures under the same conditions for 4 h and 45 min for amplification. […]

Bridge positions count the residues as written; N and C are the ends. Ends that are not written are not given here.

As to “CTDKASSSC (disulfide 1-9 (inferred)) [Peptide M5.1, CX7C cyclic peptide hit for MUC5AC]”, the “% Prevalence” value came out at 18.75%.
